We go through twelve compounds from article PMC4821856, “Novel Anti-Campylobacter Compounds Identified Using High Throughput Screening of a Pre-selected Enriched Small Molecules Library” (Frontiers in Microbiology, 2016).

The subject of data set [1] is C. jejuni 81–176. The data set is described as follows: Minimum bactericidal concentration (MBC). The conditions noted are these: for MBC: Campylobacter jejuni, read-out: C. jejuni MBC (minimum bactericidal concentration). It counts as cell-based, Campylobacter jejuni. As for the experimental part:
The percentage of C. jejuni growth inhibition was calculated as mentioned previously (De La Fuente et al., [2006]) using the following formula: percentage of inhibition = 100 × (OD negative control–OD test compound)/(OD negative control–OD positive control). Compounds that inhibited Campylobacter growth ≥ 99.0% were selected as primary hits. The culture in wells with ≥ 99% growth inhibition were streaked onto fresh MH agar, as were the sterility, antibiotic and no compound control wells. Bacterial growth was measured on the plate after 48 h at 42°C. Based on the recovery of C. jejuni on MH agar plates, the compound was classified as either “bacteriostatic” or “bactericidal.”
(§1) Minimum inhibitory concentration value not necessarily indicates the killing concentration; therefore, we determined MBC for the top-12 compounds. MBC is defined as the concentration at which 99.9% (below detection limit) of Campylobacter organisms are killed. The MBC for each of these compounds were determined as described previously (Ling et al., [2015]). […] Overall MIC and MBC values were higher for C. coli compared to C. jejuni strain. The MIC and MBC for these 12 compounds for both C. jejuni and C. coli are presented in (Table 1).

The test system of data set [2] is C. coli ATCC 33559. Briefly: Minimum bactericidal concentration (MBC). It counts as cell-based, Campylobacter coli. The conditions noted are these: for MBC: Campylobacter coli. The procedure:
Initially we re-confirmed the efficacy of the 79 resynthesized compounds against C. jejuni 81–176 and C. coli ATCC 33559.
as §1

Data set [3] can be described thus: Hemolytic activity. Conditions: 10% sheep RBCs, 37°C. It counts as cell-based. The procedure: The hemolytic activity of the top-12 compounds were determined as previously described (Strom et al., [2003]; Selin et al., [2015]). Briefly, 500 μL of sheep red blood cells (LAMPIRE Biological Laboratories, Pipersville, PA) were washed three times in PBS and resuspended in 5 mL of PBS to prepare a working concentration of 10% RBCs. Two hundred micro liter of the 10% RBCs suspension was incubated with 200 μM concentrations of compounds for 1 h at 37°C in a 96 well plate. After incubation, the plate was centrifuged (4000 rpm, 5 min) and placed on ice for few min. Supernatants from each well was transferred to a fresh 96 well plate and OD of 540 nm was measured. The PBS and 0.1% Triton X-100 were used as negative and positive controls, respectively. A range of 1–10% DMSO was also used as a control. A percent hemolysis was calculated using the following formula:
% Hemolysis=(OD of compound−OD of DMSO/ OD of Triton-X100)×100
Two independent experiments in triplicate were performed and results were expressed as the % average hemolysis.

Data set [4] deals with C. jejuni 81–176. The data set is described as follows: Single step resistance assay at lethal dose (5X MIC) on solid media. It counts as cell-based, Campylobacter jejuni. The conditions noted are these: solid MH agar with 5X MIC, 5 days, 42°C; resistant colonies observed yes/no. As for the experimental part:
Single step and sequential passage resistance assays were performed as described previously with a few modifications (Ling et al., [2015]; Xu et al., [2015]). The top 12 hit compounds were tested in this experiment. The MIC values for each of these 12 compound as determined in above assay was used for C. jejuni resistance studies using lethal (5X MIC) and sub-lethal (0.5X MIC) concentrations.
Campylobacter jejuni grown in MH medium overnight at 42°C was centrifuged at 4700 × g for 10 min at room temperature. The supernatant was discarded and the bacteria were resuspended in MH broth to an OD600 of 1.0 (~1 × 10^9 CFU). Compounds (5X MIC) were mixed with 5 ml of molten MH agar medium and transferred immediately onto small 35 mm petri-plates, agar in the plate was allowed to solidify in the dark. Ten micro liter of culture was transferred to the small molecule containing plates and spread using sterile beads, plates were incubated at 42°C for 5 days in the dark. Bacteria spread on MH agar with 50 μg/mL kanamycin or MH agar alone, were used as positive and negative controls, respectively. After 5 days of incubation, any colonies that developed were assessed for resistance to the test compounds by determining MIC and the MBC as noted above.
Our rationale for performing the resistance studies was to determine the ability of C. jejuni strain to develop resistance to these compounds when cultured on solid media with a lethal dose (5X MIC) or in liquid media with a sub-lethal dose (0.5X MIC). The presence of resistant colonies in any of these assays would reduce the attractiveness of the relevant small molecule while an absence of resistant colonies would indicate a likely inability of C. jejuni to develop resistance in general. […] Since C. jejuni is the major cause of human campylobacteriosis (95% of the cases); (Butzler, [2004]) and due to limitation of compounds availability, we only performed resistance studies on C. jejuni 81–176. However, for future commercial application of these antimicrobials, more in-depth characterization of potential resistance by other C. jejuni strains and C. coli is warranted.

[5] abbreviates: concentration at which 99.9% of organisms are killed.
Setting [6] is: ATCC33559, concentration at which 99.9% of organisms are killed, read-out: C. coli MBC.
[7] abbreviates: sheep red blood cells (10% suspension).
Where [8] appears, read: ATCC33559, read-out: C. coli MBC.

Converted amounts (≈) assume the structure as drawn. Like-named read-outs stand apart in the source and are kept apart here.

Consider `O=S(=O)(Nc1cccc(C(F)(F)F)c1)c1ccc(Br)cc1` [Comp 1], for which the “MBC relative to MIC for C. jejuni” value in data set [1] is reported as “same as that of their MIC”. Besides, the MBC in data set [1] (setting [5]) and in data set [2] (setting [6]) was 50 µM (≈ 19 µg/mL) each time. Also, the “MBC relative to MIC for C. coli” value in data set [2] is “same as that of their MIC”. In data set [3] (setting [7]), this compound registered a hemolysis at 1 h, 200 µM of 7.4%. Moreover, in data set [4], the “Resistance, single step 5X MIC” value is “No”.

On to `COc1ccc(CN2CCN(c3ccc(F)cc3)CC2)cc1C` [Comp 2], for which, in data set [1], the “MBC relative to MIC for C. jejuni” value is given as “same as that of their MIC” and the MBC amounted to 100 µM (≈ 31.4 µg/mL). Besides, the “MBC relative to MIC for C. coli” value in data set [2] is listed as “two-fold higher”. The MBC in data set [2] (setting [8]) was found to be 100 µM (≈ 31.4 µg/mL). Also, the hemolysis at 1 h, 200 µM in data set [3] amounted to 0%. Also, the “Resistance, single step 5X MIC” value in data set [4] was “No”.

For `CN(C)c1ccc(CN2CCN(c3ccccc3Cl)CC2)cc1` [Comp 3], in data set [1], the “MBC relative to MIC for C. jejuni” value is given as “two-fold higher” and the MBC came to 25 µM (≈ 8.25 µg/mL). Besides, in data set [2], the “MBC relative to MIC for C. coli” value is “same as that of their MIC”. In data set [2] (setting [8]), the MBC was 50 µM (≈ 16.5 µg/mL). Also, in data set [3], the hemolysis at 1 h, 200 µM came to 0%. For the same compound, the “Resistance, single step 5X MIC” value in data set [4] is “No”.

On to `Clc1ccc(N2CCN(Cc3ccsc3)CC2)cc1` [Comp 4], for which the “MBC relative to MIC for C. jejuni” value in data set [1] is reported as “same as that of their MIC”. The MBC in data set [1] (setting [5]) came to 50 µM (≈ 14.6 µg/mL); in data set [2] (setting [6]), 100 µM (≈ 29.3 µg/mL). In addition, the “MBC relative to MIC for C. coli” value in data set [2] is listed as “two-fold higher”. Also, the hemolysis at 1 h, 200 µM in data set [3] (setting [7]) is 0%. Further, the “Resistance, single step 5X MIC” value in data set [4] is listed as “No”.

For the compound `Cc1ccc(N2CCN(C/C=C/c3ccccc3)CC2)cc1` [Comp 5], the “MBC relative to MIC for C. jejuni” value in data set [1] is recorded as “same as that of their MIC”. The MBC in data set [1] (setting [5]) and in data set [2] (setting [6]) was 50 µM (≈ 14.6 µg/mL) each time. Besides, the “MBC relative to MIC for C. coli” value in data set [2] is listed as “same as that of their MIC”. The hemolysis at 1 h, 200 µM in data set [3] (setting [7]) came to 0%. Besides, the “Resistance, single step 5X MIC” value in data set [4] is “No”.

As to `O=c1c(Cl)c(Cl)cnn1-c1ccccc1Cl` [Comp 7], the “MBC relative to MIC for C. jejuni” value in data set [1] is on record as “same as that of their MIC”. For the same compound, the MBC in data set [1] (setting [5]) came out at 12.5 µM (≈ 3.44 µg/mL); in data set [2] (setting [6]) it was 50 µM (≈ 13.8 µg/mL). In addition, the “MBC relative to MIC for C. coli” value in data set [2] is “same as that of their MIC”. This compound yielded a hemolysis at 1 h, 200 µM in data set [3] (setting [7]) of 0%. Further, the “Resistance, single step 5X MIC” value in data set [4] is listed as “No”.

As to `Cc1c(C(C)NCc2cccc(OC3CCCC3)c2)cnn1-c1ccccc1` (stereo not drawn) [Comp 10], in data set [1], the “MBC relative to MIC for C. jejuni” value is listed as “same as that of their MIC”. The MBC in data set [1] (setting [5]) was found to be 50 µM (≈ 18.8 µg/mL); in data set [2] (setting [6]) it was 100 µM (≈ 37.6 µg/mL). Also, the “MBC relative to MIC for C. coli” value in data set [2] is “same as that of their MIC”. This compound also gave a hemolysis at 1 h, 200 µM in data set [3] (setting [7]) of 0%. Also, the “Resistance, single step 5X MIC” value in data set [4] was “No”.

`COc1ccc(CNCc2ccc(Cl)s2)cc1OCC(O)CN1CCCC1` (stereo not drawn) [Comp 12]: the “MBC relative to MIC for C. jejuni” value in data set [1] is on record as “same as that of their MIC”. Also, the MBC in data set [1] (setting [5]) and in data set [2] (setting [6]) was 100 µM (≈ 41.1 µg/mL) in each case. The “MBC relative to MIC for C. coli” value in data set [2] is “two-fold higher”. In data set [3] (setting [7]), this compound had a hemolysis at 1 h, 200 µM of 0%. In addition, the “Resistance, single step 5X MIC” value in data set [4] is given as “No”.

Regarding `CN(Cc1cccc2cnccc12)CC1CCCN(CCc2ccc(F)cc2)C1` (stereo not drawn) [Comp 13], the “MBC relative to MIC for C. jejuni” value in data set [1] is “two-fold higher”. In addition, the MBC in data set [1] (setting [5]) came out at 25 µM (≈ 9.79 µg/mL); in data set [2] (setting [6]), 50 µM (≈ 19.6 µg/mL). In data set [2], the “MBC relative to MIC for C. coli” value is “same as that of their MIC”. The hemolysis at 1 h, 200 µM in data set [3] (setting [7]) came to 0%. Moreover, the “Resistance, single step 5X MIC” value in data set [4] was “No”.

On to `CN(CC(O)COc1ccccc1CNC1(c2ccccc2)CC1)C1CCCCC1` (stereo not drawn) [Comp 17], for which the “MBC relative to MIC for C. jejuni” value in data set [1] is reported as “two-fold higher”. For the same compound, the values for the MBC in data set [1] (setting [5]) and in data set [2] (setting [6]) were 25 µM (≈ 10.2 µg/mL) and 50 µM (≈ 20.4 µg/mL), respectively. For the same compound, the “MBC relative to MIC for C. coli” value in data set [2] is reported as “same as that of their MIC”. The hemolysis at 1 h, 200 µM in data set [3] (setting [7]) was 0%. Further, the “Resistance, single step 5X MIC” value in data set [4] is given as “No”.

On to `CN(Cc1ccccc1)CC1CCCN(CCc2ccc(F)cc2)C1` (stereo not drawn) [Comp 18], for which the “MBC relative to MIC for C. jejuni” value in data set [1] was “same as that of their MIC”. Moreover, the results for the MBC in data set [1] (setting [5]) and in data set [2] (setting [6]) were 25 µM (≈ 8.51 µg/mL) and > 200 µM, respectively. For the same compound, the “MBC relative to MIC for C. coli” value in data set [2] is given as “two-fold higher”. In addition, in data set [3] (setting [7]), the hemolysis at 1 h, 200 µM amounted to 0%. The “Resistance, single step 5X MIC” value in data set [4] was “No”.

On to `CC(=O)Nc1ccc(CN(C)CC2CCCN(CCc3cccc(C(F)(F)F)c3)C2)cc1` (stereo not drawn) [Comp 22], for which the “MBC relative to MIC for C. jejuni” value in data set [1] is “two-fold higher”. The MBC stood at 25 µM (≈ 11.2 µg/mL) in data set [1] (setting [5]) and 100 µM (≈ 44.8 µg/mL) in data set [2] (setting [6]). Moreover, in data set [2], the “MBC relative to MIC for C. coli” value is recorded as “same as that of their MIC”. In data set [3] (setting [7]), this compound registered a hemolysis at 1 h, 200 µM of 0%. The “Resistance, single step 5X MIC” value in data set [4] was “No”.
